Article PMC10641818, “Development of First-in-Class Dual Sirt2/HDAC6 Inhibitors as Molecular Tools for Dual Inhibition of Tubulin Deacetylation” (Journal of Medicinal Chemistry, 2023)

Key:
HDAC2 = molecular target: T1, HDAC2 (Homo sapiens, UniProt Q92769); assay: HDAC2 in vitro deacetylation assay (ZMAL); type: biochemical; conditions: mean ± SD
T1 construct: purchased BPS Bioscience 50052

Sirt2 (demyristoylation) = Sirt2 (demyristoylation) (Homo sapiens, UniProt Q8IXJ6); assay: Continuous Sirt2 demyristoylation assay (myristoylated peptide substrate); type: biochemical; conditions: peptide-based myristoylated substrate, triplicate; read-out: Sirt2-mediated demyristoylation IC50
Protocol: As a second method to confirm the inhibition of Sirt2-mediated demyristoylation by 33, we used a continuous Sirt2 demyristoylation assay as reported by Zessin et al.[48] In brief, this assay was performed in a black 384-well fluorescence plate in a total volume of 40 μL of Sirt assay buffer (20 mM Tris-HCl, 150 mM NaCl, 5 mg/mL MgCl2, 2 mg/mL BSA, pH 7.8). Dilution series of the inhibitor was done in DMSO. A total of 2 μL of the inhibitor dilutions were incubated with 14 μL of the peptide substrate, referred to as F4 in Zessin et al.[48] (final concentration 40 nM) and 14 μL of Sirt2 solution (final concentration 1 nM) for 5 min at room temperature. In addition to the inhibitor-containing samples, a sample without inhibitors was measured as a positive control, and a sample without enzymes was measured as a negative control. The DMSO concentration was set to 5% (v/v). The reaction was started by the addition of 10 μL of NAD^+ (final concentration 500 μM). The product formation was monitored by the change in fluorescence intensity, and the reaction rate represented the activity. Fluorescence readout was performed with a BMG Fluostar Omega plate reader at following wavelengths: Excitation wavelength: λEx = 485 ± 10 nm, emission wavelength: λEm = 530 ± 10 nm. Inhibition was calculated using the following equation: [drawing 1] […]

HDAC8 = HDAC8 (Homo sapiens, UniProt Q9BY41); assay: HDAC8 in vitro deacylation assay (ZMTFAL); type: biochemical
HDAC10 = molecular target: T2, HDAC10 (Homo sapiens, UniProt Q969S8); assay: HDAC10 continuous fluorescence deacylation assay; type: biochemical
T2 sequence (Q969S8 1-669): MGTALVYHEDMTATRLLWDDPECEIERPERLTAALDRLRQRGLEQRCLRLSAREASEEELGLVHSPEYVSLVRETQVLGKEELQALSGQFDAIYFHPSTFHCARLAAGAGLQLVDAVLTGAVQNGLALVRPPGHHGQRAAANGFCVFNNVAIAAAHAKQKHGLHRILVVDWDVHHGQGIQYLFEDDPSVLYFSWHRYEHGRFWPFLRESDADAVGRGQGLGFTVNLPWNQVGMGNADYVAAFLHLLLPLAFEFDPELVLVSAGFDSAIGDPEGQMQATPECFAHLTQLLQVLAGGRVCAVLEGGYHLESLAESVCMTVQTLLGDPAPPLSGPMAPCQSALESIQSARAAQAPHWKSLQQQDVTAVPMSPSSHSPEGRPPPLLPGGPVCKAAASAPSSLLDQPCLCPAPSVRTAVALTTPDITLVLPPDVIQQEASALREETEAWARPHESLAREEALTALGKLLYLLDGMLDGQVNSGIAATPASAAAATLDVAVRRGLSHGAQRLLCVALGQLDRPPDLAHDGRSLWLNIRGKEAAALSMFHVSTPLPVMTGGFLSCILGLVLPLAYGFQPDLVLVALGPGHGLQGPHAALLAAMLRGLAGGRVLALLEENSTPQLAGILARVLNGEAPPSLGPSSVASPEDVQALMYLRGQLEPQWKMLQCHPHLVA

[1] = system: histone H3 acetylation (marker of HDAC1-3 inhibition); assay: Western blot on histone H3 hyperacetylation in MCF-7 cells; type: cell-based; conditions: 24 h, 10 µM
Protocol: Western blots on histone H3 hyperacetylation in MCF-7 cells were performed according to a previously published protocol.[72] In brief, MCF-7 were centrifuged (450g, 4 min, 22 °C) and lysed with cell extraction buffer (Thermo Fisher), supplemented with 0.1 mM PMSF, Halt Protease Inhibitor (Thermo Fisher), and Natriumorthovanadat (Thermo Fisher). Precast gels with a polymerization degree of 4–15% were used (Mini-PROTEAN TGX Stain-Free; Bio-Rad Laboratories GmbH, Munich, Germany). Proteins were transferred to Trans-Blot Turbo-PVDF membrane (Bio-Rad). The membrane was blocked with skimmed milk powder in Tris-buffered saline-Tween 20 (with 0.2% Tween 20) for 60 min, followed by three washing cycles of 10 min using Tris-buffered saline-Tween 20. Afterward, membranes were incubated with primary antibodies for ac.-Histon H3 (Cell Signal, rabbit) and GAPDH (Gene Tex, Irvine, USA, mouse) for a total of 60 min at room temperature and then incubated at 4 °C overnight. […] After rinsing of the secondary antibody, membranes were detected using ClarityECL Western Blotting Substrate (Bio-Rad). For quantitative determination, the StainFree technique was employed (Bio-Rad), as well as normalization, against the housekeeping protein GAPDH, which allows the imaging of whole lysates in SDS-PAGE before blotting and normalization against the total protein. […]

Chain of Sirt2 (demyristoylation) (Q8IXJ6 whole entry): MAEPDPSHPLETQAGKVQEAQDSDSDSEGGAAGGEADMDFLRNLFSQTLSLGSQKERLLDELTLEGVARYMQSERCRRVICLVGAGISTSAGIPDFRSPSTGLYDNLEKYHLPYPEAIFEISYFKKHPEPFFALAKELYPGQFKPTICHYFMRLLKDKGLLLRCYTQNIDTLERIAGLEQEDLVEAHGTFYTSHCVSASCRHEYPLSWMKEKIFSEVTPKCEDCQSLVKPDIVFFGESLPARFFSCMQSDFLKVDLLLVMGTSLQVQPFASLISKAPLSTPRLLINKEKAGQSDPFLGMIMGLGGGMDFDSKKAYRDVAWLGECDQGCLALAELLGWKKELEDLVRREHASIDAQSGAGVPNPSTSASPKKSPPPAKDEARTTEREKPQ
Chain of HDAC8 (Q9BY41 whole entry, species assumed): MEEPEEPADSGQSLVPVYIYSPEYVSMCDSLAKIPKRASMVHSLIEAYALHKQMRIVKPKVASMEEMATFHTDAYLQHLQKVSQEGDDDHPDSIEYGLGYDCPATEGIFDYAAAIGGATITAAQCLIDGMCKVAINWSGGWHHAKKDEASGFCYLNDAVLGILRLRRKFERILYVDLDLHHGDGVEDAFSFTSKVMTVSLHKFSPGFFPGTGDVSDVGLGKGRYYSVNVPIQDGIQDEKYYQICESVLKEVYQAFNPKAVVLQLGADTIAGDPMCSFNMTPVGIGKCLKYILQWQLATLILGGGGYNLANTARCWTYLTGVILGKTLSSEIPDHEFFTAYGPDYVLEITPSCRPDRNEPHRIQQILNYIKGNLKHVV
T1 sequence (Q92769 whole entry): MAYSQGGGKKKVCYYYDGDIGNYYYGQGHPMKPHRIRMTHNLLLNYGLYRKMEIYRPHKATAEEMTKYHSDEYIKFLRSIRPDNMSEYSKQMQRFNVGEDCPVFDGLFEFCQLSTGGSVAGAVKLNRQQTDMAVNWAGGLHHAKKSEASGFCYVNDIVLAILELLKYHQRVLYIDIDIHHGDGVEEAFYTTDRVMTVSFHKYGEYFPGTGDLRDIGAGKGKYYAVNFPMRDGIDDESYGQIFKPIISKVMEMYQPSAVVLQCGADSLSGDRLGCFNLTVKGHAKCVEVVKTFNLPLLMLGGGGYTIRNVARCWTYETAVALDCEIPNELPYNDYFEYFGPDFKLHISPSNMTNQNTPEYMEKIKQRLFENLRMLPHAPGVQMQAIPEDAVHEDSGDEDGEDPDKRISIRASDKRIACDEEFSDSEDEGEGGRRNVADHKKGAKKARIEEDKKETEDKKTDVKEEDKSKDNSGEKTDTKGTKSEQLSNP

CCCCN(Cc1ccc(C(=O)NO)cc1)C(=O)CCCCn1cc(COc2cccc(Cc3cnc(NC(=O)CSc4nc(C)cc(C)n4)s3)c2)nn1 [Compound 33, 4-((N-Butyl-5-(4-((3-((2-(2-((4,6-dimethylpyrimidin-2-yl)thio)acetamido)thiazol-5-yl)methyl)phenoxy)methyl)-1H-1,2,3-triazol-1-yl)pentanamido)methyl)-N-hydroxybenzamide]
IC50 (HDAC2): 6000 ± 200 nM
IC50 (Sirt2 (demyristoylation)): 880 ± 90 nM
IC50 (HDAC8): 2940 ± 450 nM
IC50 (HDAC10): > 6000 nM
inhibition at 6 µM (HDAC10; @ 6 µM, read-out: HDAC10 percentual inhibition): 27%
inhibition at 20 µM (HDAC10; @ 20 μM, read-out: HDAC10 percentual inhibition): 64%
Histone H3 hyperacetylation (cellular class I HDAC off-target inhibition) [1]: no significant off-target inhibition of class I
